# Results as given in patent US20240391965A1, “STAPLED ANTIMICROBIAL PEPTIDES (STAMPS) AND USES THEREOF” (Lytica Therapeutics, Inc., priority 2021, published 2024).
# Starred links: 1 amine or outer side, 2 acyl side, 3 side chain; linkers in the order of their positions; H or OH if unused. Positions of bridges follow the written chain, without caps; N, C: chain ends. Residues, ends and D or L forms follow the SMILES beside them. Biphenyl(4,4'-CH2)2 = c1cc(-c2ccc(C[*:2])cc2)ccc1C[*:1]; Naphthalene(2,6-diCH2) = c1cc2cc(C[*:2])ccc2cc1C[*:1]; mXylylene = c1cc(C[*:1])cc(C[*:2])c1; pXylylene = c1cc(C[*:2])ccc1C[*:1]
# Experiment: 48 hours cytotoxicity assay (CellTiter-Glo), liver toxicity
# Type: cell-based, human
# Settings: not given
# Description: In some embodiments, a peptide provided herein has hepatic toxicity that is at least 10% (e.g., at least 15%, at least 20%, at least 25%, at least 30%, at least 35%, at least 40%, at least 45%, at least 50%, at least 55%, at least 60%, at least 65%, at least 65%, at least 70%, at least 75%, at least 80%, at least 85%, at least 90%, at least 95%, at least 99%) lower than the hepatic toxicity of the reference. The hepatic toxicity of a peptide can be measured in vitro using a human liver cells (e.g., HepG2) toxicity assay.
# Cell culture: RPTEC were maintained in MEM media supplemented with growth factors. HEPG2 cell line was maintained in Eagle's Minimum Essential Medium (EMEM) supplemented with fetal bovine serum to a final concentration of 10%.
# 48 hours cytotoxicity assay: Cells were plated in a 96-well format, and after 4 hour incubation to allow attachment, serial dilutions of StAMPs from a 5 mg/mL water stock, or vehicle, were then added to the cells in a final volume of 100 μl. After incubating at 37° C. for 48 hours, 100 μl of CellTiter-Glo® reagent was added to the cells, and the plates were incubated 10 minutes at room temperature. Luminescence was then measured on a microplate reader.
# Renal toxicity was measured after 90 minutes of incubation, while liver toxicity was measured after 48 hours of incubation with StAMPs. N/A=not tested.
row,Compound,IC50
1,"CC[C@H](C)[C@H](NC(=O)CN)C(=O)N[C@@H](Cc1ccccc1)C(=O)N[C@@H](CO)C(=O)N[C@H]1CSCc2ccc(cc2)-c2ccc(cc2)CSC[C@@H](C(=O)N[C@@H](CC(N)=O)C(=O)N[C@@H](CC(C)C)C(=O)N[C@@H](CC(C)C)C(=O)N[C@H](C(=O)N[C@@H](CO)C(=O)NCC(=O)N[C@@H](CC(C)C)C(=O)N[C@@H](CCCCN)C(=O)NCC(N)=O)[C@@H](C)CC)NC(=O)[C@H]([C@@H](C)CC)NC(=O)[C@H](CCCCN)NC(=O)[C@H](CCCCN)NC(=O)CNC(=O)[C@H](C)NC(=O)[C@H](CC(C)C)NC1=O [compound 61] (H-GIFSCLAGKKICNLLISGLKG-NH2; linker 5-12 via Biphenyl(4,4'-CH2)2; N-terminus assumed)",> 200 µg/mL
2,"CC[C@H](C)[C@H](NC(=O)CN)C(=O)N[C@@H](Cc1ccccc1)C(=O)N[C@@H](CO)C(=O)N[C@@H](CCCCN)C(=O)N[C@@H](CC(C)C)C(=O)N[C@@H](C)C(=O)NCC(=O)N[C@@H](CCCCN)C(=O)N[C@@H](CCCCN)C(=O)N[C@H]1CSCc2ccc(cc2)-c2ccc(cc2)CSC[C@@H](C(=O)N[C@@H](CC(C)C)C(=O)N[C@@H](CCCCN)C(=O)NCC(N)=O)NC(=O)[C@H](CO)NC(=O)[C@H]([C@@H](C)CC)NC(=O)[C@H](CC(C)C)NC(=O)[C@H](CC(C)C)NC(=O)[C@H](CC(N)=O)NC(=O)[C@H](CCCCN)NC1=O [compound 76] (H-GIFSKLAGKKCKNLLISCLKG-NH2; linker 11-18 via Biphenyl(4,4'-CH2)2; N-terminus assumed)",23 µg/mL
3,CC[C@H](C)[C@H](NC(=O)[C@H](CC(C)C)NC(=O)[C@H](CC(C)C)NC(=O)[C@H](CC(N)=O)NC(=O)[C@H](CCCCN)NC(=O)[C@@H](NC(=O)[C@H](CCCCN)NC(=O)[C@H](CCCCN)NC(=O)CNC(=O)[C@H](C)NC(=O)[C@@H]1CSCc2cccc(c2)CSC[C@H](NC(=O)CN)C(=O)N[C@@H](Cc2ccccc2)C(=O)N[C@@H](CO)C(=O)N[C@@H](CCCCN)C(=O)N1)[C@@H](C)CC)C(=O)N[C@@H](CO)C(=O)NCC(=O)N[C@@H](CC(C)C)C(=O)N[C@@H](CCCCN)C(=O)NCC(N)=O [compound 46] (H-GCFSKCAGKKIKNLLISGLKG-NH2; linker 2-6 via mXylylene; N-terminus assumed),201 µg/mL
4,"CC[C@H](C)[C@H](NC(=O)CN)C(=O)N[C@@H](Cc1ccccc1)C(=O)N[C@H]1CSCc2ccc(cc2)-c2ccc(cc2)CSC[C@@H](C(=O)N[C@@H](CCCCN)C(=O)N[C@@H](CC(N)=O)C(=O)N[C@@H](CC(C)C)C(=O)N[C@@H](CC(C)C)C(=O)N[C@H](C(=O)N[C@@H](CO)C(=O)NCC(=O)N[C@@H](CC(C)C)C(=O)N[C@@H](CCCCN)C(=O)NCC(N)=O)[C@@H](C)CC)NC(=O)[C@H](CCCCN)NC(=O)[C@H](CCCCN)NC(=O)CNC(=O)[C@H](C)NC(=O)[C@H](CC(C)C)NC(=O)[C@H](CCCCN)NC1=O [compound 59] (H-GIFCKLAGKKCKNLLISGLKG-NH2; linker 4-11 via Biphenyl(4,4'-CH2)2; N-terminus assumed)",23 µg/mL
5,"CC[C@H](C)[C@H](NC(=O)CN)C(=O)N[C@@H](Cc1ccccc1)C(=O)N[C@@H](CO)C(=O)N[C@@H](CCCCN)C(=O)N[C@@H](CC(C)C)C(=O)N[C@@H](C)C(=O)NCC(=O)N[C@H]1CSCc2ccc(cc2)-c2ccc(cc2)CSC[C@@H](C(=O)N[C@@H](CO)C(=O)NCC(=O)N[C@@H](CC(C)C)C(=O)N[C@@H](CCCCN)C(=O)NCC(N)=O)NC(=O)[C@H](CC(C)C)NC(=O)[C@H](CC(C)C)NC(=O)[C@H](CC(N)=O)NC(=O)[C@H](CCCCN)NC(=O)[C@H]([C@@H](C)CC)NC(=O)[C@H](CCCCN)NC1=O [compound 70] (H-GIFSKLAGCKIKNLLCSGLKG-NH2; linker 9-16 via Biphenyl(4,4'-CH2)2; N-terminus assumed)",23 µg/mL
6,"CC[C@H](C)[C@H](NC(=O)CN)C(=O)N[C@@H](Cc1ccccc1)C(=O)N[C@@H](CO)C(=O)N[C@@H](CCCCN)C(=O)N[C@@H](CC(C)C)C(=O)N[C@@H](C)C(=O)NCC(=O)N[C@@H](CCCCN)C(=O)N[C@@H](CCCCN)C(=O)N[C@H](C(=O)N[C@@H](CCCCN)C(=O)N[C@@H](CC(N)=O)C(=O)N[C@H]1CSCc2ccc(cc2)-c2ccc(cc2)CSC[C@@H](C(N)=O)NC(=O)[C@H](CCCCN)NC(=O)[C@H](CC(C)C)NC(=O)CNC(=O)[C@H](CO)NC(=O)[C@H]([C@@H](C)CC)NC(=O)[C@H](CC(C)C)NC1=O)[C@@H](C)CC [compound 86] (H-GIFSKLAGKKIKNCLISGLKC-NH2; linker 14-21 via Biphenyl(4,4'-CH2)2; N-terminus assumed)",9 µg/mL
7,CC[C@H](C)[C@H](NC(=O)[C@H](CC(C)C)NC(=O)[C@H](CC(C)C)NC(=O)[C@H](CC(N)=O)NC(=O)[C@H](CCCCN)NC(=O)[C@@H](NC(=O)[C@H](CCCCN)NC(=O)[C@H](CCCCN)NC(=O)CNC(=O)[C@H](C)NC(=O)[C@@H]1CSCc2ccc(cc2)CSC[C@H](NC(=O)CN)C(=O)N[C@@H](Cc2ccccc2)C(=O)N[C@@H](CO)C(=O)N[C@@H](CCCCN)C(=O)N1)[C@@H](C)CC)C(=O)N[C@@H](CO)C(=O)NCC(=O)N[C@@H](CC(C)C)C(=O)N[C@@H](CCCCN)C(=O)NCC(N)=O [compound 47] (H-GCFSKCAGKKIKNLLISGLKG-NH2; linker 2-6 via pXylylene; N-terminus assumed),402 µg/mL
8,"CC[C@H](C)[C@H](NC(=O)[C@H](CC(C)C)NC(=O)[C@H](CC(C)C)NC(=O)[C@H](CC(N)=O)NC(=O)[C@H](CCCCN)NC(=O)[C@@H](NC(=O)[C@H](CCCCN)NC(=O)[C@H](CCCCN)NC(=O)[C@@H]1CSCc2ccc(cc2)-c2ccc(cc2)CSC[C@H](N)C(=O)N[C@@H]([C@@H](C)CC)C(=O)N[C@@H](Cc2ccccc2)C(=O)N[C@@H](CO)C(=O)N[C@@H](CCCCN)C(=O)N[C@@H](CC(C)C)C(=O)N[C@@H](C)C(=O)N1)[C@@H](C)CC)C(=O)N[C@@H](CO)C(=O)NCC(=O)N[C@@H](CC(C)C)C(=O)N[C@@H](CCCCN)C(=O)NCC(N)=O [compound 51] (H-CIFSKLACKKIKNLLISGLKG-NH2; linker 1-8 via Biphenyl(4,4'-CH2)2; N-terminus assumed)",102 µg/mL
9,"CC[C@H](C)[C@H](NC(=O)CN)C(=O)N[C@@H](Cc1ccccc1)C(=O)N[C@@H](CO)C(=O)N[C@@H](CCCCN)C(=O)N[C@@H](CC(C)C)C(=O)N[C@@H](C)C(=O)N[C@H]1CSCc2ccc(cc2)-c2ccc(cc2)CSC[C@@H](C(=O)N[C@H](C(=O)N[C@@H](CO)C(=O)NCC(=O)N[C@@H](CC(C)C)C(=O)N[C@@H](CCCCN)C(=O)NCC(N)=O)[C@@H](C)CC)NC(=O)[C@H](CC(C)C)NC(=O)[C@H](CC(N)=O)NC(=O)[C@H](CCCCN)NC(=O)[C@H]([C@@H](C)CC)NC(=O)[C@H](CCCCN)NC(=O)[C@H](CCCCN)NC1=O [compound 68] (H-GIFSKLACKKIKNLCISGLKG-NH2; linker 8-15 via Biphenyl(4,4'-CH2)2; N-terminus assumed)",8 µg/mL

# Same assay, conditions: 48 hours of incubation, CellTiter-Glo; read-out: Inhibitory Concentration at 50% Cytotoxicity (IC50) Human Liver Cells (HepG2)
row,Compound,IC50
1,"CC[C@H](C)[C@H](NC(=O)CN)C(=O)N[C@@H](Cc1ccccc1)C(=O)N[C@@H](CO)C(=O)N[C@H]1CSCc2ccc3cc(ccc3c2)CSC[C@@H](C(=O)N[C@@H](CC(N)=O)C(=O)N[C@@H](CC(C)C)C(=O)N[C@@H](CC(C)C)C(=O)N[C@H](C(=O)N[C@@H](CO)C(=O)NCC(=O)N[C@@H](CC(C)C)C(=O)N[C@@H](CCCCN)C(=O)NCC(N)=O)[C@@H](C)CC)NC(=O)[C@H]([C@@H](C)CC)NC(=O)[C@H](CCCCN)NC(=O)[C@H](CCCCN)NC(=O)CNC(=O)[C@H](C)NC(=O)[C@H](CC(C)C)NC1=O [compound 62] (H-GIFSCLAGKKICNLLISGLKG-NH2; linker 5-12 via Naphthalene(2,6-diCH2))",81 µg/mL
